Data as given in ChEMBL document CHEMBL1201862, “PubChem BioAssay data set” (2004).
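How tested: cells in 96-well plates exposed to compound for 48 hours at five concentrations. At the GI50, growth is halved.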 The source made the active and inactive calls. Cut-off read from the data, not from the text of the source: active = GI50 up to about 1.1 µM and inactive = higher.

Key:
Assay in all cases: inhibition of tumour cell growth, NCI panel, 48 h
[1] = tested on: 786-0
[2] = tested on: A498
[3] = tested on: A549
[4] = tested on: ACHN
[5] = tested on: CAKI-1
[6] = tested on: CCRF-CEM
[7] = tested on: COLO 205
[8] = tested on: DLD-1
[9] = tested on: DMS-114
[10] = tested on: DMS-273
[11] = tested on: EKVX
[12] = tested on: HCC 2998
[13] = tested on: HCT-116
[14] = tested on: HCT-15
[15] = tested on: HL-60
[16] = tested on: HOP-18
[17] = tested on: HOP-62
[18] = tested on: HOP-92
[19] = tested on: HT-29
[20] = tested on: IGROV-1
[21] = tested on: K562
[22] = tested on: KM-20L2
[23] = tested on: KM12
[24] = tested on: LOX IMVI
[25] = tested on: LXFL 529
[26] = tested on: M14
[27] = tested on: M19-MEL
[28] = tested on: MOLT-4
[29] = tested on: Malme-3M
[30] = tested on: NCI-H226
[31] = tested on: NCI-H23
[32] = tested on: NCI-H460
[33] = tested on: NCI-H522
[34] = tested on: OVCAR-3
[35] = tested on: OVCAR-5
[36] = tested on: OVCAR-8
[37] = tested on: RPMI-8226
[38] = tested on: RXF 393
[39] = tested on: RXF 631
[40] = tested on: SF-268
[41] = tested on: SF-295
[42] = tested on: SK-MEL-28
[43] = tested on: SK-MEL-2
[44] = tested on: SK-MEL-5
[45] = tested on: SK-OV-3
[46] = tested on: SN12C
[47] = tested on: SNB-19
[48] = tested on: SNB-75
[49] = tested on: SNB-78
[50] = tested on: SR
[51] = tested on: SW-620
[52] = tested on: TK-10
[53] = tested on: UACC-257
[54] = tested on: UACC-62
[55] = tested on: UO-31
[56] = tested on: XF498
[57] = tested on: BT-549
[58] = tested on: DU-145
[59] = tested on: Hs-578T
[60] = tested on: MCF7
[61] = tested on: MDA-MB-231
[62] = tested on: MDA-MB-435
[63] = tested on: MDA-N
[64] = tested on: NCI/ADR-RES
[65] = tested on: OVCAR-4
[66] = tested on: PC-3
[67] = tested on: SF-539
[68] = tested on: U-251

## CC1(C)C(=O)N(c2ccccc2)C(=O)N1c1nc2ccccc2[nH]1
[1]
  GI50: > 100 µM (inactive)
[2]
  GI50: > 100 µM (inactive)
[3]
  GI50: > 100 µM (inactive)
[4]
  GI50: > 100 µM (inactive)
[5]
  GI50: > 100 µM (inactive)
[6]
  GI50: 21.4 µM (inactive)
[7]
  GI50: 49.7 µM (inactive)
[8]
  GI50: > 100 µM (inactive)
[9]
  GI50: 38.7 µM (inactive)
[10]
  GI50: > 100 µM (inactive)
[11]
  GI50: > 100 µM (inactive)
[12]
  GI50: > 100 µM (inactive)
[13]
  GI50: 37.4 µM (inactive)
[14]
  GI50: 94.2 µM
[15]
  GI50: 63.2 µM (inactive)
[16]
  GI50: > 100 µM (inactive)
[17]
  GI50: > 100 µM (inactive)
[18]
  GI50: > 100 µM (inactive)
[19]
  GI50: 65.6 µM (inactive)
[20]
  GI50: > 100 µM (inactive)
[21]
  GI50: 53.6 µM (inactive)
[22]
  GI50: > 100 µM (inactive)
[23]
  GI50: > 100 µM (inactive)
[24]
  GI50: 85.9 µM (inactive)
[25]
  GI50: 85.3 µM (inactive)
[26]
  GI50: > 100 µM (inactive)
[27]
  GI50: > 100 µM (inactive)
[28]
  GI50: 40.9 µM (inactive)
[29]
  GI50: > 100 µM (inactive)
[30]
  GI50: > 100 µM (inactive)
[31]
  GI50: > 100 µM (inactive)
[32]
  GI50: 71.9 µM (inactive)
[33]
  GI50: 54.7 µM (inactive)
[34]
  GI50: > 100 µM (inactive)
[35]
  GI50: > 100 µM (inactive)
[36]
  GI50: > 100 µM (inactive)
[37]
  GI50: 33.7 µM (inactive)
[38]
  GI50: > 100 µM (inactive)
[39]
  GI50: > 100 µM (inactive)
[40]
  GI50: > 100 µM (inactive)
[41]
  GI50: > 100 µM (inactive)
[42]
  GI50: > 100 µM (inactive)
[43]
  GI50: > 100 µM (inactive)
[44]
  GI50: > 100 µM (inactive)
[45]
  GI50: > 100 µM (inactive)
[46]
  GI50: > 100 µM (inactive)
[47]
  GI50: > 100 µM (inactive)
[48]
  GI50: > 100 µM (inactive)
[49]
  GI50: > 100 µM (inactive)
[50]
  GI50: 78.7 µM (inactive)
[51]
  GI50: 17.4 µM (inactive)
[52]
  GI50: > 100 µM (inactive)
[53]
  GI50: > 100 µM (inactive)
[54]
  GI50: > 100 µM (inactive)
[55]
  GI50: > 100 µM (inactive)
[56]
  GI50: 92.7 µM (inactive)

## C1CN1c1nc(N2CC2)nc(N2CC2)n1
[1]
  GI50: 2.97 µM (inactive)
[2]
  GI50: 9.95 µM (inactive)
[3]
  GI50: 4.29 µM (inactive)
[4]
  GI50: 0.944 µM (active)
[57]
  GI50: 15.9 µM (inactive)
[5]
  GI50: 2.19 µM (inactive)
[6]
  GI50: 0.82 µM (active)
[7]
  GI50: 13.6 µM (inactive)
[8]
  GI50: 18.4 µM (inactive)
[9]
  GI50: 2.99 µM (inactive)
[10]
  GI50: 1.31 µM (inactive)
[58]
  GI50: 2.78 µM (inactive)
[11]
  GI50: 19.5 µM (inactive)
[12]
  GI50: 8.87 µM (inactive)
[13]
  GI50: 8.55 µM (inactive)
[14]
  GI50: 12.9 µM
[15]
  GI50: 0.649 µM (active)
[16]
  GI50: 17.5 µM (inactive)
[17]
  GI50: 1.97 µM (inactive)
[18]
  GI50: 10 µM (inactive)
[19]
  GI50: 13.2 µM (inactive)
[59]
  GI50: 26.5 µM (inactive)
[20]
  GI50: 14.2 µM (inactive)
[21]
  GI50: 10.4 µM (inactive)
[22]
  GI50: 15.1 µM (inactive)
[23]
  GI50: 16.2 µM (inactive)
[24]
  GI50: 3.08 µM (inactive)
[25]
  GI50: 13.9 µM (inactive)
[26]
  GI50: 4.84 µM (inactive)
[27]
  GI50: 12.3 µM (inactive)
[60]
  GI50: 2.16 µM (inactive)
[61]
  GI50: 20.2 µM (inactive)
[62]
  GI50: 12.6 µM (inactive)
[63]
  GI50: 12.1 µM (inactive)
[28]
  GI50: 0.495 µM (active)
[29]
  GI50: 11.7 µM (inactive)
[30]
  GI50: 8.24 µM (inactive)
[31]
  GI50: 2.73 µM (inactive)
[32]
  GI50: 0.41 µM (active)
[33]
  GI50: 5.21 µM (inactive)
[64]
  GI50: 5.42 µM (inactive)
[34]
  GI50: 16 µM (inactive)
[65]
  GI50: 16.2 µM (inactive)
[35]
  GI50: 11.5 µM (inactive)
[36]
  GI50: 7.55 µM (inactive)
[66]
  GI50: 12.3 µM (inactive)
[37]
  GI50: 12.5 µM (inactive)
[38]
  GI50: 6.78 µM (inactive)
[39]
  GI50: 11.3 µM (inactive)
[40]
  GI50: 2.99 µM (inactive)
[41]
  GI50: 2.37 µM (inactive)
[67]
  GI50: 2.68 µM (inactive)
[42]
  GI50: 14.3 µM (inactive)
[43]
  GI50: 17.7 µM (inactive)
[44]
  GI50: 6.19 µM (inactive)
[45]
  GI50: 8.87 µM (inactive)
[46]
  GI50: 2.95 µM (inactive)
[47]
  GI50: 6.65 µM (inactive)
[48]
  GI50: 5.66 µM (inactive)
[50]
  GI50: 0.5 µM (active)
[51]
  GI50: 11 µM (inactive)
[52]
  GI50: 24 µM (inactive)
[68]
  GI50: 3.92 µM (inactive)
[53]
  GI50: 10.7 µM (inactive)
[54]
  GI50: 1.84 µM (inactive)
[55]
  GI50: 7.36 µM (inactive)
[56]
  GI50: 4.89 µM (inactive)
